Experimental findings from patent US8143025B2, “Antibodies against vascular endothelial growth factor receptor-1” (ImClone LLC, priority 2004, dated 2012) are described below.

The test system of experiment [1] is HT-29 cells. The experiment is described as follows: Migration through membrane insert. In kind it is cell-based, human. As to conditions: 66 nM antibody, 10 ng/mL VEGF-A or 50 ng/mL VEGF-B, 48 hours, p<0.05, FIG. 23. On the procedure: HT-29 cells (2.5×1 10^4) or SW480 cells (1.5×1 10^4) were incubated in medium containing 1% FBS with the anti-VEGFR-1 antibody 18F1 (66 nM) in the upper surface of a 24 well MATRIGEL™ coated (HT-29) or uncoated (SW480) 8.0-μm pore size membrane insert (Becton Dickinson Labware, Bedford, Mass.). The inserts were placed into lower chambers containing 10 ng/mL VEGF-A (R&D Systems) or 50 ng/mL VEGF-B (R&D Systems) for 48 hours. Cells remaining in the top chamber of the inserts were removed with a cotton swab. Cells migrating to the underside of the inserts were stained with Diff-Quik (Harleco, Gibbstown, N.J.) and counted in ten random fields at 100× magnification. Statistical analysis was performed using InStat Statistical Software (V2.03, GraphPad Software, San Diego, Calif.).

The target of experiment [2] is T1, mouse VEGFR-I-AP (Mus musculus, UniProt P35969).
T1 sequence (P35969 23-759 limits assumed): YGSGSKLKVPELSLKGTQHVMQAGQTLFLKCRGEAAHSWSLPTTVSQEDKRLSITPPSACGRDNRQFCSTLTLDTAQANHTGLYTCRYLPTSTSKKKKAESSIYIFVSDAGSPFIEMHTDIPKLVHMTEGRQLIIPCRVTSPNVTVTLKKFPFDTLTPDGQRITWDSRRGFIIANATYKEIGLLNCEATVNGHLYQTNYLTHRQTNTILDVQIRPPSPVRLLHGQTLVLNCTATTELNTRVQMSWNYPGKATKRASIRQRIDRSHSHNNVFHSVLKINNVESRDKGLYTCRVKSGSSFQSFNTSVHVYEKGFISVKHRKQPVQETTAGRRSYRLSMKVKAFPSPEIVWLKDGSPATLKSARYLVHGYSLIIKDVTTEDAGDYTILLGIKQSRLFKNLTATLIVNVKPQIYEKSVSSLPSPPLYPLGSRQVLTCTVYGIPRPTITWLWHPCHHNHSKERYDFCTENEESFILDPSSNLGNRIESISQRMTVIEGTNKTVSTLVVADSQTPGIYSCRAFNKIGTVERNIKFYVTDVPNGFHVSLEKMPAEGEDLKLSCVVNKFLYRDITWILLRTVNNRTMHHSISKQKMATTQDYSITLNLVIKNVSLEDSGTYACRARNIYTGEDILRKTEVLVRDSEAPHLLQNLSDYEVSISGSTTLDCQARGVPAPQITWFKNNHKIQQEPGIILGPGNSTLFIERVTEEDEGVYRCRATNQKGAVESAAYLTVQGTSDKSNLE
The experiment is described as follows: Plate-bound receptor binding ELISA (Example 2B). The following applies: FIG. 32B, 100 ng/well. The method, then: HuVEGFR-I-Fc, mouse VEGFR-I-AP (hnClone Systems) or huVEGFR-2-AP (ImClone Systems) (100 ng/well) was coated on 96 strip-well plates and blocked with 5% milk/PBS. The binding of 18F1 and other anti-human VEGFR-I antibodies or a rat anti-mouse VEGFR-I antibody, MF1 (ImClone Systems, ref. 18), to plate bound VEGFR-I or VEGFR-2 was evaluated as described for the hybridoma supernatant screening above, except that bound antibody was detected with a goat anti-human kappa-HRP antibody (Bio Source International, Camarillo, Calif.) for 18F1 and anti-human VEGFR-2 antibody ICl 1. or a goat anti-rat IgG-HRP antibody (BioSource International) for MF1.
A general note: An ELISA detects its analyte on a solid surface through an enzyme-linked reagent.

Experiment [3] has as its system MDA-MB-435 xenograft. The experiment is described as follows: MDA-MB-435 breast tumor xenograft. The format is in vivo, mouse. On the procedure: Athymic nude mice (Charles River Laboratories, Wilmington, Mass.) were injected subcutaneously in the left flank area with 2×10^6 of DU4475 cells or 5×10^6 of MDA-MB-231 and MDA-MB-435 cells mixed in Matrigel (Collaborative Research Biochemicals. Bedford, Mass.). In the DU4475 and MDA-MB-231 models, tumors were allowed to reach approximately 200 mm^3 in size and then mice were randomized into groups of 12-16 animals per group. Animals received i.p. administration of the anti-VEGFR-I antibody clones 6F9, 15F11, or 18F1 at a dose of 0.5 mg (MDA-MB-231) or 1 mg (DU4475) three times each week. In the MDA-MB-435 model, the tumor cells were implanted subcutaneously into mammary fat pad area in the mouse. After tumors grew to reach approximately 200 mm^3 in size, mice were randomized into groups of 15 animals per group and intraperitoneally administered with 0.5 mg per dose of 18F1 antibody three times each week. Mice in control groups received an equal volume of saline solution. Treatment of animals was continued for the duration of the experiment. Tumors were measured twice each week with calipers. Tumor volumes were calculated using the formula [π/6 (w1×w2×w2)], where “w1” represents the largest tumor diameter and “w2” represents the smallest tumor diameter. […] Tumor growth was evaluated approximately twice weekly, with tumor volume calculated as π/6* (Length*Width^2), where Length=longest diameter and Width=diameter perpendicular to Length. Tumor dimensions were measured with calipers. T/C % was calculated as 100*(Final Treatment Tumor Volume/Initial Treatment Tumor Volume)/(Final Control Tumor Volume/Initial Control Tumor Volume). […] The effect of treatment on tumor growth was analyzed using repeated measures analysis of variance (RM ANOVA), p<0.05 was considered significant. […] AU treatments were administered i.p. The effect of treatments on tumor growth were analyzed using repeated measures analysis of variance (RM ANOVA), p<0.05 was considered significant.

As to “18F1: human anti-VEGFR-1 monoclonal antibody clone; VL SEQ ID NO: 16, VH SEQ ID NO: 20 [Clone 18F1]”, the “VEGFR-I ligand induced migration” value in experiment [1] is “completely blocked”. In experiment [2], the “reactivity with mouse VEGFR-I” value is recorded as “no cross reactivity”. Besides, the “tumor growth of the MDA-MB-435 xenograft” value in experiment [3] (0.5 or 1 mg per dose three times each week, ANOVA p<0.05, FIG. 20C) was “statistically significant suppression”. Also, in experiment [3] (Example 9, intraperitoneal, p<0.05, FIG. 25B), the “growth of MDA-MB-435 xenograft tumors” value is “significantly (p<0.05) suppressed”.
